The target of one data set is Acetylcholinesterase (Electrophorus electricus, UniProt O42275).
For the next data set, the system named is ant. Put plainly: Evaluated for the amount of compound present in ant's venom Monomorium minutum. Type of data set: functional.
Data set [1] can be described thus: Partition coefficient (logP). Type of data set: physicochemical. To be noted: octanol/water.

The structures appear in SMILES notation.

Acetylcholinesterase, sequence (O42275 whole entry): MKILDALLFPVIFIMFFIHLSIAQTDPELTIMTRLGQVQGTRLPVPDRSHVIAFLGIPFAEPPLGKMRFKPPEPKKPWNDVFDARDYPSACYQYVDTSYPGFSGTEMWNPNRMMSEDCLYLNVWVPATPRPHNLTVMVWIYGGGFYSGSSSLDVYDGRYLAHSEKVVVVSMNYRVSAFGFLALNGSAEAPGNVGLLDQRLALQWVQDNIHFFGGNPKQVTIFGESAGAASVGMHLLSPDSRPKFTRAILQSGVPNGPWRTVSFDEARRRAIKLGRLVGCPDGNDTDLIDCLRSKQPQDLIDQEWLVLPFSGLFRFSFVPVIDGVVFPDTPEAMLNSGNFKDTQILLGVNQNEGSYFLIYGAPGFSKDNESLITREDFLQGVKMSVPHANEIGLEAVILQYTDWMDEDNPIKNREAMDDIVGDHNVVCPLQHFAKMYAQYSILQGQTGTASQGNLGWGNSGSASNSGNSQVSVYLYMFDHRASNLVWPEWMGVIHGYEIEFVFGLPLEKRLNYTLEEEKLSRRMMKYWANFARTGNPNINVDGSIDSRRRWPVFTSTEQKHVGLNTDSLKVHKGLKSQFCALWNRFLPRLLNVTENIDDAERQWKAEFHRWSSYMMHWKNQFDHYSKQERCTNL
Description for Acetylcholinesterase: Tested for in vitro inhibition of acetylcholinesterase

For `C=CCCCCCCCC1CCC(CCCCC=C)N1` (stereo not drawn), at Acetylcholinesterase, affinity was put at a Ki of 2500 nM. Moreover, the Venom with ant was found to be 29.8%. The compound also had a logP in data set [1] of 7.32.
Taken in the same sequence, the figures for `C=CCCCCC1=NC(CCCCCCCCC)CC1` (stereo not drawn) were 5000 nM, 4.4% and 8.39.
In turn, `C=CCCCCCCCC1=NC(CCCCC=C)CC1` (stereo not drawn) came in with an inhibitory constant (Ki) on Acetylcholinesterase of 13000 nM. Besides, the Venom in the data set with ant was determined as 0.2%. Further, the logP in data set [1] is 8.02.
On to `C=CCCCCC1CCC(CCCCCCCCC)N1` (stereo not drawn), for which, on Acetylcholinesterase, the Ki came to 1500 nM. The compound also registered a Venom with ant of 58.7%. The same compound showed a log partition coefficient (logP) in data set [1] of 7.68.
Take `CN(C)C(=O)Oc1cccc([N+](C)(C)C)c1` [NEOSTIGMINE BROMIDE]: on Acetylcholinesterase, the affinity, expressed as Ki, was 1000 nM.

Broadly, the Ki is the equilibrium dissociation constant of an inhibitor or competing ligand from its target. The low end stands for higher affinity, the high end for lower affinity. Usually logP stands for a log measure of how a compound divides between an organic and an aqueous phase. Read a high logP as higher lipophilicity.

(Values after ChEMBL document CHEMBL1128153, “Acetylcholinesterase inhibition by alkaloids of the ant's venom Monomorium minutum” (Bioorg Med Chem Lett, 1995).)
